Data taken from ChEMBL document CHEMBL1759967, “Structure-based design and biological profile of (E)-N-(4-Nitrobenzylidene)-2-naphthohydrazide, a novel small molecule inhibitor of IκB kinase-β” (Eur J Med Chem, 2011).
The source made the active and inactive calls. The calls are words filed in the database; no cut-off is given here.

What was measured:
[1] = target: Serine/threonine-protein kinase Chk2 (Homo sapiens) (UniProt O96017); assay: Inhibition of human CHK2 kinase expressed in insect Sf21 cells using phospho-CREBtide as substrate at 30 uM
Chain of Serine/threonine-protein kinase Chk2 (Homo sapiens) (O96017 whole entry): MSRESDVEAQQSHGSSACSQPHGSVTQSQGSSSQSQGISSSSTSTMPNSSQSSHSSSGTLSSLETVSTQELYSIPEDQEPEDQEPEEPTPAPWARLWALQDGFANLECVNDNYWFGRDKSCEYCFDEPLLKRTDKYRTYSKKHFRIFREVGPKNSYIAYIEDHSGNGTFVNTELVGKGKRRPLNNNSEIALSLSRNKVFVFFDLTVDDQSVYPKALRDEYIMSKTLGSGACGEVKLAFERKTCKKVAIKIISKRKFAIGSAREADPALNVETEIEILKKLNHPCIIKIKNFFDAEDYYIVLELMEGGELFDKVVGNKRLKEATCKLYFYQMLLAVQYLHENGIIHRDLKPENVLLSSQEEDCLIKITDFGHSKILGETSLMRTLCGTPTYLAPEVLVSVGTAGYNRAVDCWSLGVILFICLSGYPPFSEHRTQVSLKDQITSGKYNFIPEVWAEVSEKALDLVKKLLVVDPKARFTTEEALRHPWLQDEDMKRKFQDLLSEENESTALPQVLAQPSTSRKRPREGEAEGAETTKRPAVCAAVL

[2] = target: T1, Inhibitor of nuclear factor kappa-B kinase subunit alpha (Homo sapiens) (UniProt O15111); settings: Sf21, 30 uM
T1 sequence (whole entry): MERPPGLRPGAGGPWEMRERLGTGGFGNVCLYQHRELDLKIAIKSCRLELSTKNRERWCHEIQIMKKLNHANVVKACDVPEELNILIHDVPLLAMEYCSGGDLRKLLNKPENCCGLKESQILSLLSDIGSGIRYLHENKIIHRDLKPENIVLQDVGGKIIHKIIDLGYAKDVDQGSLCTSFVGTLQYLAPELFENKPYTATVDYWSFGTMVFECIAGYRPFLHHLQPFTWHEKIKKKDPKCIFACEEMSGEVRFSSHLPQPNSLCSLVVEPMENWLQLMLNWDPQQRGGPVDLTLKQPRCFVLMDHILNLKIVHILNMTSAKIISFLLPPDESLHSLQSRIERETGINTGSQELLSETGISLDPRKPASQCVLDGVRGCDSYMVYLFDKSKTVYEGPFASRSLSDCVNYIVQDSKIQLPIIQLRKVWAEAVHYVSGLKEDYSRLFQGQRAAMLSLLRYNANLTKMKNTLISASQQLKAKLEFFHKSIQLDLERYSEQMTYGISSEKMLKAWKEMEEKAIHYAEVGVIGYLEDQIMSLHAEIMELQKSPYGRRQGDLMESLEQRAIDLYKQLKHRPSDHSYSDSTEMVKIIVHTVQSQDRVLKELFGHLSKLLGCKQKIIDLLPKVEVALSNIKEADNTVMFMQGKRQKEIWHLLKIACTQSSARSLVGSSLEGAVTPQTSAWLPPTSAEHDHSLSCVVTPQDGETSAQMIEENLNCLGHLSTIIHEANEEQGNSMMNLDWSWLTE
Description: Inhibition of human recombinant IKK-alpha expressed in insect Sf21 cells using phospho-Ulight-IkappaB-alpha as substrate at 30 uM

[3] = target: T2, Inhibitor of nuclear factor kappa-B kinase subunit beta (Homo sapiens, UniProt O14920); assay: Inhibition of human recombinant IKK-beta expressed in insect Sf21 cells using phospho-Ulight-IkappaB-alpha as substrate
T2 sequence (O14920 whole entry): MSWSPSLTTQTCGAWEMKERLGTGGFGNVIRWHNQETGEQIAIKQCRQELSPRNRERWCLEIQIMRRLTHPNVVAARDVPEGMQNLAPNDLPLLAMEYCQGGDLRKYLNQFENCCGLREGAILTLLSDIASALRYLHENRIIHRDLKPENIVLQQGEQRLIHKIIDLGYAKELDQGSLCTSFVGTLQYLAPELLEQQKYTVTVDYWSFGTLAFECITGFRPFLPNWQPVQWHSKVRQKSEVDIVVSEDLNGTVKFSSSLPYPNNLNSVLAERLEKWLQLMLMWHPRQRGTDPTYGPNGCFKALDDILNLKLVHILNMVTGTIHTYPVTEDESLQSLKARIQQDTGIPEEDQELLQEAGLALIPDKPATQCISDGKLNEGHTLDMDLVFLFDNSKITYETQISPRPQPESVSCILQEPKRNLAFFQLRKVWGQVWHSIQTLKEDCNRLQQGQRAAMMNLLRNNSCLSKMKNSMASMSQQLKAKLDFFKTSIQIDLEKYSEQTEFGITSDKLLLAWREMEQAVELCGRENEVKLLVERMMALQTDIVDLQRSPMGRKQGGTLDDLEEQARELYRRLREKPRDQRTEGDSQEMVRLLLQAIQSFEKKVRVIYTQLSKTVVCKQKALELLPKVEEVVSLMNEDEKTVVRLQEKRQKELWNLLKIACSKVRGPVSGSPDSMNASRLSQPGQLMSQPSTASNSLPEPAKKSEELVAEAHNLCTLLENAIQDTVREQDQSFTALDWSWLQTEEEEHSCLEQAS

[4] = target: T3, Inhibitor of nuclear factor kappa-B kinase subunit beta (Homo sapiens) (UniProt O14920); settings: Sf21, 30 uM
T3 sequence (whole entry): T2 sequence (O14920 whole entry)
Description: Inhibition of human recombinant IKK-beta expressed in insect Sf21 cells using phospho-Ulight-IkappaB-alpha as substrate at 30 uM

[5] = organism: Mus musculus; settings: Swiss, Ear, at 10 µmol/kg
[6] = test system: Mus musculus; assay: Antiinflammatory activity in Swiss mouse assessed as inhibition of arachidonic acid-induced ear edema at 10 to 100 umol/kg, ip administered 60 mins before arachidonic acid challenge measured after 1 to 6 hrs by electronic digital caliper; assay type: functional, organism-based

Compound | inhibition [1] | inhibition [2] | IC50 [3] | inhibition [4] | inhibition [5] | inhibition [6]
O=C(N/N=C/c1ccc([N+](=O)[O-])cc1)c1ccc2ccccc2c1 | 0% | 0% | 20 µM | 1.2% | Active | Dose-dependent effect
NC(=O)c1sc(-c2ccsc2)cc1N | – | – | – | – | Active | –
O=C(O)c1ccc(/C=N/NC(=O)c2ccc3ccccc3c2)cc1 | 0% | 0% | – | 0% | – | –
COC(=O)c1ccc(/C=N/NC(=O)c2ccc3ccccc3c2)cc1 | 0% | 0% | – | 0% | – | –
